This note sets out measurements from ChEMBL document CHEMBL1136419, “Homologues and isomers of noladin ether, a putative novel endocannabinoid: interaction with rat cannabinoid CB(1) receptors” (Bioorg Med Chem Lett, 2003).

Common to all, as to format: cell membranes
Experiment [1] concerns the target T1, Cannabinoid receptor 1 (Rattus norvegicus, UniProt P20272). Description: Binding affinity towards cannabinoid CB1 receptor in rat brain membrane by displacement of [3H]SR-141,716A at 50 uM. A general note: Loss of bound radioactivity is the signal in a displacement assay; it reports binding, not function.
Experiment [2] addresses Cannabinoid receptor 1 (Rattus norvegicus) (UniProt P20272). Description: Binding affinity towards CB1 receptor in rat brain membrane by displacement of [3H]SR-141,716A relative to HU-210.
In experiment [3] the target is T1, Cannabinoid receptor 1. Kind of experiment: Binding affinity towards cannabinoid CB1 receptor in rat brain membrane by displacement of [3H]SR-141,716A.

T1 sequence (P20272 whole entry): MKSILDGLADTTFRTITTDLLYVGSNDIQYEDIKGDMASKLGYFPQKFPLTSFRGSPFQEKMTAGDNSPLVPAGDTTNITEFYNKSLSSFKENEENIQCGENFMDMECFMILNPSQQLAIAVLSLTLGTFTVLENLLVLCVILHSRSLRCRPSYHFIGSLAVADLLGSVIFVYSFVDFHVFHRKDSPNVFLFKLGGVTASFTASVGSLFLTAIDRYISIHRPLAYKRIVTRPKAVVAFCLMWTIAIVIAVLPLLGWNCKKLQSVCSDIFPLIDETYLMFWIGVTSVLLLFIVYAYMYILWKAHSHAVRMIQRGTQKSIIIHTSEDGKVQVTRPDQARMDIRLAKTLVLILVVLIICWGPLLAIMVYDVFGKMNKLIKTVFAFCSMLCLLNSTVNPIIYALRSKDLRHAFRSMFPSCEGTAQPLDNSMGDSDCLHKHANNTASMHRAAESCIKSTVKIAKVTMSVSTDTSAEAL
Chain of Cannabinoid receptor 1 (Rattus norvegicus) (P20272 whole entry): as above

Usually Ki stands for the dissociation constant of the complex between target and ligand, obtained from inhibition or displacement. Read a low Ki as a stronger hold on the target. For the compound `CCCCCCCC/C=C\CCCCCCCCCCCCOC(CO)CO`, on Cannabinoid receptor 1 [1], the Ki was > 50 µM. The Krel in experiment [2] was > 12500.

As for `CCCCCCCC[C@@H]1C[C@@H]1CCCCCCCCOC(CO)CO`, the Krel in experiment [2] is > 125000. Moreover, the inhibitory constant (Ki) on Cannabinoid receptor 1 [3] is > 50 µM.

As to `CC(C)=CCC/C(C)=C/COC(CO)CO`, the Krel in experiment [2] is > 12500. Also, at Cannabinoid receptor 1 [3], the Ki was > 50 µM.

Compound `CCCCCCCC/C=C\CCCCCCCCOC(CO)CO` returned a Krel in experiment [2] of 6400. Besides, at Cannabinoid receptor 1 [3], the affinity corresponds to a Ki of 25.6 µM.

On to `CCCCC/C=C\C/C=C\C/C=C\CCCCCOC(CO)CO`, for which the Krel in experiment [2] was found to be 3480. The compound also returned a Ki on Cannabinoid receptor 1 [3] of 13.9 µM.

Turning to `CCCCCC/C=C/C#CCCCCCCCCOC(CO)CO`, the Ki on Cannabinoid receptor 1 [1] is > 50 µM. Moreover, the Krel in experiment [2] was > 125000.

Regarding `CCCCCC[C@@H]1C[C@@H]1C#CCCCCCCCCOC(CO)CO`, the Krel in experiment [2] is > 125000. Moreover, the Ki at Cannabinoid receptor 1 [3] was > 50 µM.

`CCCCC/C=C\C/C=C\C/C=C\C/C=C\CCCCOCC(O)CO` (stereo in doubt; 5a) [listing 1 of 2 here] had a Ki on Cannabinoid receptor 1 [3] of 5 µM.

Take `CCCCC/C=C\C/C=C\C/C=C\C/C=C\CCCCOCC(O)CO` (stereo in doubt; 5a) [listing 2 of 2 here]: the Krel in experiment [2] came to 1250.

Consider `CCCCC/C=C\C/C=C\CCCCCCCCOC(CO)CO`, for which the Krel in experiment [2] came to 5620. At Cannabinoid receptor 1 [3], this compound yielded a Ki of 22.5 µM.

In experiment [2], `CCCCC/C=C\C/C=C\C/C=C\C/C=C\CCCCOCC(O)CO` (stereo in doubt; 5b) showed a Krel of 625.

For the compound `CCCCCCCC[C@@H]1C[C@@H]1CCCCCCCCCCCCOC(CO)CO` (single isomer, unassigned), in experiment [2], the Krel was > 125000. Further, the Ki on Cannabinoid receptor 1 [3] was > 50 µM.

Regarding `CCCCCCCCCCCCCCCCOCC(O)CO` (centres undefined), the Krel in experiment [2] is > 12500. In addition, the Ki on Cannabinoid receptor 1 [3] was > 50 µM.

Consider `CC(C)=CCC/C(C)=C/CC/C(C)=C/COC(CO)CO`, for which, in experiment [2], the Krel is > 12500. The Ki at Cannabinoid receptor 1 [3] was > 50 µM.

As for `CC(C)=CCC/C(C)=C/COCC(O)CO` (centres undefined), the Krel in experiment [2] is > 12500. In addition, on Cannabinoid receptor 1 [3], the Ki was > 50 µM.

Consider `CCCCCCCCCCCCCCCCOC(CO)CO`, for which the Krel in experiment [2] was > 12500. Also, at Cannabinoid receptor 1 [3], the Ki is > 50 µM.
